These results are taken from ChEMBL document CHEMBL1126287, “Analogues of natural phloroglucinols as antagonists against both thromboxane A2 and leukotriene D4” (J Med Chem, 1992).

What is called Inhibition is how much of the control response was suppressed. Higher therefore signals strong suppression. Usually IC50 stands for the point on the concentration scale where inhibition reaches its midpoint. Higher therefore signals weaker potency.

Common to all, as to assay type: functional
For test [1], the species on record is Cavia porcellus. Put plainly: Inhibitory activity of the Compound was tested against U-46619 induced contraction of guinea pig trachea at 2*10e-5 M concentration.
Test [2] is filed under the species Cavia porcellus. Put plainly: Inhibitory activity of the Compound was tested against LTD4 induced contraction of guinea pig trachea at 2*10e5- M concentration.
The species named for test [3] is Cavia porcellus. In words: Inhibitory activity of the Compound was tested against U-46619 induced contraction of guinea pig trachea at 1*10e-4 M concentration.
For test [4], the species on record is Cavia porcellus. Put plainly: Inhibitory activity of the Compound was tested against LTD4 induced contraction of guinea pig trachea at 1*10e-4 M concentration.
Test [5] is filed under the species Cavia porcellus. In words: Inhibitory activity of the Compound was tested against U-46619 induced contraction of guinea pig trachea at 3*10e-6 M concentration.
The species named for test [6] is Cavia porcellus. Put plainly: Inhibitory concentration of the Compound was tested against LTD4 induced contraction of guinea pig trachea.
The species named for test [7] is Cavia porcellus. In words: Inhibitory activity of the Compound was tested against LTD4 induced contraction of guinea pig trachea at 2*10e-5 M concentration.
Test [8] is filed under the species Cavia porcellus. In words: Inhibitory activity of the Compound was tested against U-46619 induced contraction of guinea pig trachea.
The species entered for test [9] is Cavia porcellus. In words: Inhibitory activity of the Compound was tested against LTD4 induced contraction of guinea pig trachea at 3*10e-6 M concentration.
Test [10] is filed under the species Cavia porcellus. Put plainly: Inhibitory activity of the Compound was tested against U-46619 induced contraction of guinea pig trachea at 3*10e-7 M concentration.
Test [11] is filed under the species Cavia porcellus. In words: Inhibitory activity of the Compound was tested against U-46619 induced contraction of guinea pig trachea at 1*10e-6 M concentration.
The species entered for test [12] is Cavia porcellus. Put plainly: Inhibitory activity of the Compound was tested against LTD4 induced contraction of guinea pig trachea at 1*10e-6 M concentration.
The species entered for test [13] is Cavia porcellus. Put plainly: Inhibitory activity of the Compound was tested against LTD4 induced contraction of guinea pig trachea at 3*10e-7 M concentration.
The species entered for test [14] is Cavia porcellus. In words: Inhibitory activity of the Compound was tested against U-46619 induced contraction of guinea pig trachea at 3*10e-8 M concentration.
The species named for test [15] is Cavia porcellus. In words: Inhibitory activity of the Compound was tested against U-46619 induced contraction of guinea pig trachea at 2*10e-5 concentration.
The species entered for test [16] is Cavia porcellus. Put plainly: Inhibitory activity of the Compound was tested against LTD4 induced contraction of guinea pig trachea at 1*10e-5 M concentration.
Test [17] is filed under the species Cavia porcellus. In words: Inhibitory activity of the Compound was tested against U-46619 induced contraction of guinea pig trachea at 1*10e-5 M concentration.
The species entered for test [18] is Cavia porcellus. In words: Inhibitory activity of the Compound was tested against LTD4 induced contraction of guinea pig trachea at 2*10e-6 M concentration.
The species named for test [19] is Cavia porcellus. In words: Inhibitory activity of the Compound was tested against LTD4 induced contraction of guinea pig trachea at 2*10e-7 M concentration.
For test [20], the species on record is Cavia porcellus. Put plainly: Inhibitory activity of the Compound was tested against U-46619 induced contraction of 2*10e-5 M concentration.
Test [21] is filed under the species Cavia porcellus. Put plainly: Inhibitory activity of the Compound was tested against U-46619 induced contraction of guinea pig trachea at 2*10e-6 M concentration.
For test [22], the species on record is Cavia porcellus. Put plainly: Inhibitory activity of the Compound was tested against U-46619 induced contraction of guinea pig trachea at 2*10e-7 M concentration.
The species named for test [23] is Cavia porcellus. Put plainly: Inhibitory activity of the Compound was tested against LTD4 induced contraction of guinea pig trachea at 1*10e-5 concentration.
The species entered for test [24] is Cavia porcellus. Put plainly: Inhibitory activity of the Compound was tested against U-46619 induced contraction of guinea pig trachea at 2 *10e-7 M concentration.

On to `CC(C)=CCC/C(C)=C/COc1cc(O)c(C(=O)C(C)C)c(O)c1C`, for which the Inhibition in the test filed under Cavia porcellus [1] is on record as 10.8%; in the test listed under Cavia porcellus [2] it was 12.6%; in the test filed under Cavia porcellus [3], 50%; in the test filed under Cavia porcellus [4] it was 50.9%.
As for `CCCCC1(CCCC)C(=O)C(C(=O)C(C)C)=C(O)C(C(=O)C(C)C)=C1O`, the Inhibition in the test listed under Cavia porcellus [1] turned out to be 91.6%; in the test listed under Cavia porcellus [5] it was 58.6%; in the test listed under Cavia porcellus [7], 100%; in the test listed under Cavia porcellus [9], 66.5%. The IC50 in the test filed under Cavia porcellus [6] worked out at 1200 nM; in the test filed under Cavia porcellus [8], 1.8 µM.
As for `CCCCCC1(CCCCC)C(=O)C(C(=O)C(C)C)=C(O)C(C(=O)C(C)C)=C1O`, the Inhibition came to 80.4% in the test listed under Cavia porcellus [1], 17% in the test filed under Cavia porcellus [5], 95% in the test filed under Cavia porcellus [7] and 58.3% in the test filed under Cavia porcellus [9]. Also, the IC50 was found to be 2300 nM in the test listed under Cavia porcellus [6] and 5.6 µM in the test listed under Cavia porcellus [8].
On to `CCC1(CC)C(=O)C(C(=O)C(C)C)=C(O)C(C(=O)C(C)C)=C1O`, for which the Inhibition in the test listed under Cavia porcellus [10] worked out at 49%; in the test filed under Cavia porcellus [11], 84.2%; in the test listed under Cavia porcellus [12] it was 87.8%; in the test listed under Cavia porcellus [13], 44.9%. In addition, the IC50 in the test listed under Cavia porcellus [6] came to 350 nM; in the test listed under Cavia porcellus [8], 0.31 µM.
In the test listed under Cavia porcellus [14], `CC(C)C(=O)c1c(C(C)C)nn2ccccc12` [IBUDILAST] gave an Inhibition of 85.4%.
On to `CCCCCC(=O)c1c(O)cc(O)c(C(=O)CCCCC)c1O`, for which the Inhibition in the test listed under Cavia porcellus [1] is recorded as 25.9%; in the test filed under Cavia porcellus [7], 43.3%.
For `CCCC1(CCC)C(=O)C(C(=O)C(C)C)=C(O)C(C(=O)C(C)C)=C1O`, the Inhibition in the test listed under Cavia porcellus [1] is on record as 81.7%; in the test filed under Cavia porcellus [5] it was 25.3%; in the test listed under Cavia porcellus [7], 88.5%; in the test listed under Cavia porcellus [9], 28.5%. The IC50 in the test listed under Cavia porcellus [6] came out at 5900 nM; in the test listed under Cavia porcellus [8] it was 6.9 µM.
As for `CCCCCC(=O)c1c(O)cc(O)cc1O`, the Inhibition in the test filed under Cavia porcellus [15] was found to be 100%; in the test filed under Cavia porcellus [16] it was 62.3%; in the test filed under Cavia porcellus [7], 93.9%; in the test listed under Cavia porcellus [17], 56.9%. Moreover, the results for the IC50 in the test filed under Cavia porcellus [6] and in the test listed under Cavia porcellus [8] were 7600 nM and 8.9 µM, respectively.
In the case of `CCC(=O)c1c(O)cc(O)c(C(=O)CC)c1O`, the Inhibition is listed as 53.4% in the test filed under Cavia porcellus [1], 97.1% in the test filed under Cavia porcellus [7], 42.5% in the test listed under Cavia porcellus [18] and 30.8% in the test listed under Cavia porcellus [19]. For the same compound, in the test filed under Cavia porcellus [6], it took 12000 nM to reach half-maximal inhibition (IC50).
For the compound `CC(=O)c1c(O)cc(O)c(C(C)=O)c1O`, the Inhibition was found to be 44.3% in the test listed under Cavia porcellus [1] and 39.1% in the test filed under Cavia porcellus [7].
For the compound `CCCC(=O)c1c(O)cc(O)c(C(=O)CCC)c1O`, the Inhibition in the test listed under Cavia porcellus [20] is on record as 72.5%; in the test listed under Cavia porcellus [21] it was 57%; in the test listed under Cavia porcellus [7], 87%; in the test listed under Cavia porcellus [22] it was 8.4%; in the test filed under Cavia porcellus [18], 59.4%; in the test listed under Cavia porcellus [19] it was 12.5%. Further, the IC50 in the test filed under Cavia porcellus [6] came out at 1400 nM; in the test filed under Cavia porcellus [8], 2.7 µM.
For `CC(C)CC(=O)c1c(O)cc(O)cc1O`, the figures for the Inhibition in the test listed under Cavia porcellus [5] and in the test listed under Cavia porcellus [17] were 22.7% and 96.6%, respectively. Also, in the test filed under Cavia porcellus [8], it took 4.7 µM to reach half-maximal inhibition (IC50).
In the case of `CC(C)CC(=O)c1c(O)cc(O)c(C(=O)CC(C)C)c1O`, the Inhibition is 42% in the test filed under Cavia porcellus [21]; 100% in the test listed under Cavia porcellus [1]; 100% in the test listed under Cavia porcellus [7]; 22.6% in the test listed under Cavia porcellus [22]; 78.2% in the test filed under Cavia porcellus [18]; 29.9% in the test filed under Cavia porcellus [19]. The IC50 in the test listed under Cavia porcellus [6] is 560 nM; in the test listed under Cavia porcellus [8] it was 1.5 µM.
Take `CC(C)C(=O)c1c(O)cc(O)c(C(=O)C(C)C)c1O`: the Inhibition in the test filed under Cavia porcellus [1] worked out at 53.6%; in the test listed under Cavia porcellus [7], 92.3%; in the test listed under Cavia porcellus [18] it was 48.5%; in the test listed under Cavia porcellus [19] it was 28.9%. Besides, the IC50 in the test filed under Cavia porcellus [6] came out at 1200 nM.
With `CCCC(=O)c1c(O)cc(O)cc1O`, the Inhibition in the test listed under Cavia porcellus [17] is on record as 27.3%.
Consider `CCC(C)C(=O)c1c(O)cc(O)cc1O` (stereo not given), for which the Inhibition in the test filed under Cavia porcellus [23] worked out at 25.4%; in the test listed under Cavia porcellus [5], 13.8%; in the test filed under Cavia porcellus [17], 76.3%. Further, 6 µM corresponded to half-maximal inhibition in the test filed under Cavia porcellus [8] (IC50).
Consider `CCCCCCCC(=O)c1c(O)cc(O)c(C(=O)CCCCCCC)c1O`, for which the Inhibition in the test listed under Cavia porcellus [1] is listed as 15.1%; in the test listed under Cavia porcellus [7], 17.4%.
As for `CCC(C)C(=O)c1c(O)cc(O)c(C(=O)C(C)CC)c1O` (stereo not given), the Inhibition in the test filed under Cavia porcellus [21] was 34.7%; in the test listed under Cavia porcellus [1], 98%; in the test listed under Cavia porcellus [7], 80.1%; in the test filed under Cavia porcellus [18], 45.5%. The results for the IC50 in the test filed under Cavia porcellus [6] and in the test listed under Cavia porcellus [8] were 1400 nM and 1.7 µM, respectively.
For `CC(C)C(=O)C1=C(O)C(C)(C)C(O)=C(C(=O)C(C)C)C1=O`, the Inhibition in the test listed under Cavia porcellus [21] is given as 61.2%; in the test listed under Cavia porcellus [24], 38.5%; in the test filed under Cavia porcellus [5], 80.2%; in the test filed under Cavia porcellus [9], 87%; in the test filed under Cavia porcellus [18], 60.7%; in the test filed under Cavia porcellus [19] it was 36.8%. In addition, the IC50 is 570 nM in the test filed under Cavia porcellus [6] and 0.58 µM in the test listed under Cavia porcellus [8].
In the case of `COC1(OC)C(=O)C(C/C=C(\C)CCC=C(C)C)=C(O)C(CC=C(C)C)=C1O`, the results for the Inhibition in the test listed under Cavia porcellus [1] and in the test filed under Cavia porcellus [7] were 94.9% and 63.6%, respectively.
Regarding `CC(C)C(=O)c1c(O)cc(O)cc1O` [PHLOROISOBUTYROPHENONE], the Inhibition in the test listed under Cavia porcellus [16] worked out at 32%; in the test listed under Cavia porcellus [5] it was 11%; in the test filed under Cavia porcellus [17], 70.4%. The compound further displayed an IC50 in the test filed under Cavia porcellus [8] of 6.6 µM.
